# The source made the active and inactive calls. No cut-off for these calls is given here.
# Assays:
# MFC [1] = assay: Induction of T-cell killing response in mouse MFC cells assessed as increase in IFN-gamma secretion at 1 to 4 uM pretreated for 5 days followed by co-culturing with human PBMC-derived T cells for 4 days by ELISA; format: functional, cell-based; details: dose 1-4 µM, time 5.0 day
# [2] = molecular target: T1, Lysine-specific histone demethylase 1A (Homo sapiens, UniProt O60341); assay: Inhibition of LSD1 in human MKN-45 cells assessed as accumulation of membrane PD-L1 at 2 uM incubated for 5 days; format: cell-based; design: scale not given: the % may be the effect or the level left; details: time 5.0 day
# MFC [3] = assay: Antitumor activity against mouse MFC cells implanted in 615 mouse assessed as tumor growth suppression treated intragastrically daily for 14 days; format: functional, cell-based; details: dose 10-50 mg/kg, route ig, time 14.0 day
# [4] = molecular target: Lysine-specific histone demethylase 1A (Mus musculus) (UniProt Q6ZQ88); assay: Inhibition of LSD1 in mouse MFC cells assessed as accumulation of membrane PD-L1 at 4 uM incubated for 5 days (reference value: 63.0 %); format: cell-based; design: scale not given: the % may be the effect or the level left; details: time 5.0 day
# Mus musculus [5] = assay: In vivo induction of T-cell response in mouse MFC cells implanted in 615 mouse assessed as increase in IL-2 mRNA level at 10 to 50 mg/kg, IG treated daily for 14 days by PCR analysis; format: functional, organism-based; details: dose 10-50 mg/kg, time 14.0 day
# MFC [6] = assay: In vivo induction of T-cell infiltration in mouse MFC cells implanted in 615 mouse assessed as increase in CD3+ CD8+ T cells at 25 mg/kg, IG treated daily for 14 days by flow cytometry (reference value: 2.79 %); format: functional; details: time 14 day
# MKN-45 [7] = assay: Effect on H3K4me1 demethylation in human MKN-45 cells harboring LSD1-KO at 1 to 4 uM incubated for 5 days by Western blot analysis; format: functional, cell-based; details: dose 1-4 µM, time 5.0 day
# [8] = molecular target: Lysine-specific histone demethylase 1A (Mus musculus) (UniProt Q6ZQ88); assay: Inhibition of LSD1 in mouse MFC cells assessed as reduction in PD-L1 level incubated for 5 days by Western blot analysis; format: cell-based; details: time 5.0 day
# Mus musculus [9] = assay: In vivo induction of T-cell response in mouse MFC cells implanted in 615 mouse assessed as increase in IFN-gamma mRNA level at 10 to 50 mg/kg, IG treated daily for 14 days by PCR analysis; format: functional, organism-based; details: dose 10-50 mg/kg, time 14.0 day
# MKN-45 [10] = assay: Effect on H3K4me3 demethylation in human MKN-45 cells at 1 to 4 uM incubated for 5 days by Western blot analysis; format: functional, cell-based; details: dose 1-4 µM, time 5.0 day
# [11] = molecular target: Programmed cell death protein 1/Programmed cell death 1 ligand 1 (Homo sapiens) (UniProt Q15116+Q9NZQ7); assay: Inhibition of PD-1/PD-L1 interaction in human MKN-45 cells pretreated for 5 days followed by PD-1-Fc addition by DAPI staining based confocal microscopy; format: cell-based; details: dose 1-4 µM, time 5.0 day
# MKN-45 [12] = assay: Induction of T-cell killing response in human MKN-45 cells assessed as increase in IL-2 secretion at 1 to 4 uM pretreated for 5 days followed by co-culturing with human PBMC-derived T cells for 4 days by ELISA; format: functional, cell-based; details: dose 1-4 µM, time 5.0 day
# MKN-45 [13] = assay: Induction of T-cell killing response in human MKN-45 cells assessed as decrease in cell viability pretreated for 5 days followed by co-culturing with human PBMC-derived T cells for 4 days by CCK8 assay; format: functional, cell-based; details: dose 1-4 µM, time 5.0 day
# [14] = molecular target: T1, Lysine-specific histone demethylase 1A; assay: Inhibition of LSD1 in human MKN-45 cells assessed as decrease in demethylation of H3K4me2 incubated for 5 days by Western blot analysis; format: cell-based; details: dose 1-4 µM, time 5.0 day
# [15] = molecular target: T1, Lysine-specific histone demethylase 1A; assay: Inhibition of LSD1 in human MKN-45 cells assessed as reduction in PD-L1 level incubated for 5 days by Western blot analysis; format: cell-based; details: dose 1-4 µM, time 5.0 day
# MKN-45 [16] = assay: Inhibition of cell migration in human MKN-45 cells at 1 to 4 uM incubated up to 48 hrs by wound healing assay; format: functional, cell-based; details: dose 1-4 µM
# [17] = molecular target: Lysine-specific histone demethylase 1A (Mus musculus) (UniProt Q6ZQ88); assay: Inhibition of LSD1 in mouse MFC cells assessed as accumulation of membrane PD-L1 at 2 uM incubated for 5 days; format: cell-based; design: scale not given: the % may be the effect or the level left; details: time 5.0 day
# MKN-45 [18] = assay: Induction of T-cell killing response in human MKN-45 cells assessed as increase in IFN-gamma secretion at 1 to 4 uM pretreated for 5 days followed by co-culturing with human PBMC-derived T cells for 4 days by ELISA; format: functional, cell-based; details: dose 1-4 µM, time 5.0 day
# MKN-45 [19] = assay: Effect on PD-L1 expression in human MKN-45 cells harboring LSD1-KO at 1 to 4 uM incubated for 5 days by Western blot analysis; format: functional, cell-based; details: dose 1-4 µM, time 5.0 day
# MKN-45 [20] = assay: Inhibition of cell invasion in human MKN-45 cells at 1 to 4 uM incubated for 2 days by crystal violet staining based transwell assay; format: functional; details: dose 1-4 µM, time 2.0 day
# [21] = Toxicity in 615 mouse implanted with mouse MFC cells assessed as body weight change at 10 to 50 mg/kg, IG treated daily for 14 days; format: organism-based; details: in vivo, po, 336 h, dose 10-50 mg/kg, time 14 day
# MFC [22] = assay: Induction of T-cell killing response in mouse MFC cells assessed as decrease in cell viability at 1 to 4 uM pretreated for 5 days followed by co-culturing with human PBMC-derived T cells for 4 days by CCK8 assay; format: functional, cell-based; details: dose 1-4 µM, time 5.0 day
# [23] = molecular target: T1, Lysine-specific histone demethylase 1A; assay: Induction of thermal stabilization of LSD1 in human MKN-45 cells incubated for 5 days followed by heat exposure at 40 to 55 degreeC by CETSA; format: cell-based; details: time 5.0 day
# [24] = Toxicity in 615 mouse implanted with mouse MFC cells assessed as histological change in liver at 10 to 50 mg/kg, IG treated daily for 14 days by H and E staining based analysis; format: organism-based; details: in vivo, po, 336 h, dose 10-50 mg/kg, time 14 day
# MFC [25] = assay: In vivo induction of T-cell infiltration in mouse MFC cells implanted in 615 mouse assessed as increase in CD3+ CD8+ T cells at 10 mg/kg, IG treated daily for 14 days by flow cytometry (reference value: 2.79 %); format: functional; details: time 14 day
# [26] = Toxicity in 615 mouse implanted with mouse MFC cells assessed as histological change in kidney at 10 to 50 mg/kg, IG treated daily for 14 days by H and E staining based analysis; format: organism-based; details: in vivo, po, 336 h, dose 10-50 mg/kg, time 14 day
# [27] = Toxicity in 615 mouse implanted with mouse MFC cells assessed as histological change in lung at 10 to 50 mg/kg, IG treated daily for 14 days by H and E staining based analysis; format: organism-based; details: in vivo, po, 336 h, dose 10-50 mg/kg, time 14 day
# [28] = molecular target: Lysine-specific histone demethylase 1A (Mus musculus) (UniProt Q6ZQ88); assay: Inhibition of LSD1 in mouse MFC cells assessed as accumulation of membrane PD-L1 at 1 uM incubated for 5 days (reference value: 63.0 %); format: cell-based; design: scale not given: the % may be the effect or the level left; details: time 5.0 day
# [29] = molecular target: T1, Lysine-specific histone demethylase 1A; assay: Inhibition of LSD1 in human MKN-45 cells assessed as accumulation of membrane PD-L1 at 4 uM incubated for 5 days (reference value: 58.4 %); format: cell-based; design: scale not given: the % may be the effect or the level left; details: time 5.0 day
# MKN-45 [30] = assay: Induction of T-cell killing response in human MKN-45 cells harboring LSD1-KO assessed as decrease in cell viability at 1 to 4 uM pretreated for 5 days followed by co-culturing with human PBMC-derived T cells for 4 days by CCK8 assay; format: functional, cell-based; details: dose 1-4 µM, time 5.0 day
# [31] = molecular target: T1, Lysine-specific histone demethylase 1A; assay: Inhibition of LSD1 in human MKN-45 cells; format: cell-based
# MKN-45 [32] = assay: Effect on H3K4me2 demethylation in human MKN-45 cells harboring LSD1-KO at 1 to 4 uM incubated for 5 days by Western blot analysis; format: functional, cell-based; details: dose 1-4 µM, time 5.0 day
# MFC [33] = assay: In vivo induction of T-cell infiltration in mouse MFC cells implanted in 615 mouse assessed as increase in CD3+ CD8+ T cells at 50 mg/kg, IG treated daily for 14 days by flow cytometry (reference value: 2.79 %); format: functional; details: time 14 day
# MFC [34] = assay: Antitumor activity against mouse MFC cells implanted in 615 mouse assessed as decrease in tumor weight at 10 to 50 mg/kg, IG treated daily for 14 days; format: functional, organism-based; details: dose 10-50 mg/kg, time 14.0 day
# [35] = molecular target: T1, Lysine-specific histone demethylase 1A; assay: Inhibition of LSD1 in human MKN-45 cells assessed as accumulation of membrane PD-L1 at 1 uM incubated for 5 days (reference value: 58.4 %); format: cell-based; design: scale not given: the % may be the effect or the level left; details: time 5.0 day
# [36] = Toxicity in 615 mouse implanted with mouse MFC cells assessed as histological change in heart at 10 to 50 mg/kg, IG treated daily for 14 days by H and E staining based analysis; format: organism-based; details: in vivo, po, 336 h, dose 10-50 mg/kg, time 14 day
# [37] = Toxicity in 615 mouse implanted with mouse MFC cells assessed as histological change in spleen at 10 to 50 mg/kg, IG treated daily for 14 days by H and E staining based analysis; format: organism-based; details: in vivo, po, 336 h, dose 10-50 mg/kg, time 14 day
# MFC [38] = assay: Antitumor activity against mouse MFC cells implanted in 615 mouse assessed as decrease PD-L1 expression treated intragastrically daily for 14 days by Western blot analysis; format: functional, cell-based; details: dose 10-50 mg/kg, route ig, time 14.0 day
# [39] = molecular target: T1, Lysine-specific histone demethylase 1A; assay: Inhibition of recombinant LSD1 (unknown origin) extracted from Escherichia coli BL21 (DE3) using H3K4me2 peptide as substrate in presence of […] by Amplex Red assay
# MFC [40] = assay: Antitumor activity against mouse MFC cells implanted in 615 mouse assessed as decrease Ki67 expression at 10 to 50 mg/kg, IG treated daily for 14 days by IHC analysis; format: functional, organism-based; details: dose 10-50 mg/kg, time 14.0 day
# [41] = molecular target: T1, Lysine-specific histone demethylase 1A; assay: Inhibition of LSD1 in human MKN-45 cells assessed as decrease in demethylation of H3K4me1 incubated for 5 days by Western blot analysis; format: cell-based; details: dose 1-4 µM, time 5.0 day
structure (smiles),measurement,setting,value
C=C1C(=O)OCC1C(O)c1cn(S(=O)(=O)c2ccc(N(C)C)c([N+](=O)[O-])c2)c2ccc(Cl)cc12 (stereo unspecified),Activity,MFC [1],Active
same,Activity,[2],47.3%
same,Activity,MFC [3],Dose-dependent-effect
same,Activity,[4],16%
same,Activity,Mus musculus [5],Active
same,Activity,MFC [6],6.46%
same,Activity,MKN-45 [7],No effect
same,inhibition,[8],Dose-dependent-effect
same,Activity,Mus musculus [9],Active
same,Activity,MKN-45 [10],No effect
same,inhibition,[11],Dose-dependent-effect
same,Activity,MKN-45 [12],Active
same,Activity,MKN-45 [13],Dose-dependent-effect
same,inhibition,[14],Dose-dependent-effect
same,inhibition,[15],Dose-dependent-effect
same,inhibition,MKN-45 [16],Active; Effect Was Better Than Ory-1001
same,Activity,[17],45.6%
same,Activity,MKN-45 [18],Active
same,Activity,MKN-45 [19],No effect
same,inhibition,MKN-45 [20],Active; Effect Was Better Than Ory-1001
same,Activity,[21],Non-toxic
same,Activity,MFC [22],Active
same,Activity,[23],Active
same,Activity,[24],Non-toxic
same,Activity,MFC [25],4.92%
same,Activity,[26],Non-toxic
same,Activity,[27],Non-toxic
same,Activity,[28],59.7%
same,Activity,[29],39.1%
same,Activity,MKN-45 [30],inactive
same,IC50,[31],80.3 nM
same,Activity,MKN-45 [32],No effect
same,Activity,MFC [33],16.6%
same,Activity,MFC [34],Active
same,Activity,[35],49.5%
same,Activity,[36],Non-toxic
same,Activity,[37],Non-toxic
same,Activity,MFC [38],Dose-dependent-effect
same,IC50,[39],80 nM
same,Activity,MFC [40],Active
same,inhibition,[41],Dose-dependent-effect

# From ChEMBL document CHEMBL6134893, “The Exploration of Indole-Based LSD1-Targeted Inhibitors for Enhanced Immune Response in Gastric Cancer via the PD-L1/PD-1 Axis” (J Med Chem, 2025)
